According to patent US20210261538A1, “PROTEIN ARGININE METHYLTRANSFERASE 5 (PRMT5) DEGRADATION / DISRUPTION COMPOUNDS AND METHODS OF USE” (ICAHN SCHOOL OF MEDICINE AT MOUNT SINAI, priority 2018, published 2021):
Entries after “also recorded” stand apart in the source; their conditions may differ.

Experiments:
PRMT5 substrates = experiment: Arginine symmetric dimethylation (SDMA Western blot) in MCF-7 cells; assay type: cell-based
Experimental: (§1) MCF-7 cells, HEK293T cells and HeLa cells were cultured in Dulbecco's Modified Eagle Medium (DMEM) supplemented with 10% fetal bovine serum (FBS) in 5% CO2 at 37° C. Jurkat cells were cultured in RPMI 1640 medium supplemented with 10% FBS in 5% CO2 at 37° C. H2171 cells were cultured in HITES medium supplemented with 10% FBS in 5% CO2 at 37° C. HCT116 were cultured in McCoy's 5A medium supplemented with 10% fetal bovine serum (FBS) in 5% CO2 at 37° C. All the cells lines were treated with 5 μM (or indicated concentration) of PRMT5 inhibitor (EPZ015666) or degraders, or equivalent volume of DMSO for 6 days (or indicated time points). Fresh compounds were constituted in medium and used for every 2 days. The antibodies used in this study are: PRMT5 antibody (Active Motif), (3-actin antibody (Sigma), SDMA antibody (collaboration with Cell Signaling Technologies). Cell cultures were harvested at the end of compound treatments and applied subjected to western blotting assay. Briefly, cells were washed with PBS and lysed with RIPA lysis buffer for 20 minutes on ice. Then lysates were centrifuged and the clear supernatant were collected. SDS loading buffer was added to the lysates and then the mixture was boiled at 100° C. for 5 minutes. Samples were loaded to 10% or 12% SDS-PAGE gel and ran at 120V for 1.5 hours. Then the proteins were transferred to PVDF membrane and blocked in 5% milk fat at room temperature for 1 hour. Then the membranes were incubated with indicated antibodies at 4° C. overnight. Membranes were washed with PBST buffer three times for 10 minutes each time and incubated with HRP-conjugated (horse radish peroxidase) secondary antibodies at room temperature for 1 hour. Again the membranes were washed with PBST buffer three times for 10 minutes each time. Finally, the indicated proteins on the membranes were visualized with ECL (enhanced chemiluminescence) reagents. MCF-7 cells were treated with EPZ015666 or YS43-22 at indicated compound concentrations (μM) for 6 days.

PRMT5 = PRMT5 (Homo sapiens, UniProt O14744); experiment: Western blot of PRMT5 protein levels in Jurkat cells; assay type: cell-based; parameters: endogenous in cells; conditions: 5 μM, 6 days
Experimental: as §1, with “Then the proteins were transferred to PVDF membrane and blocked in 5% milk fat at room temperature for 1 hour. Then the membranes were incubated with indicated antibodies at 4° C. overnight. Membranes were washed with PBST buffer three times for 10 minutes each time and incubated with HRP-conjugated (horse radish peroxidase) secondary antibodies at room temperature for 1 hour. Again the membranes were washed with PBST buffer three times for 10 minutes each time. Finally, the indicated proteins on the membranes were visualized with ECL (enhanced chemiluminescence) reagents. MCF-7 cells were treated with EPZ015666 or YS43-22 at indicated compound concentrations (μM) for 6 days.” left out

Sequence of PRMT5 (O14744 whole entry): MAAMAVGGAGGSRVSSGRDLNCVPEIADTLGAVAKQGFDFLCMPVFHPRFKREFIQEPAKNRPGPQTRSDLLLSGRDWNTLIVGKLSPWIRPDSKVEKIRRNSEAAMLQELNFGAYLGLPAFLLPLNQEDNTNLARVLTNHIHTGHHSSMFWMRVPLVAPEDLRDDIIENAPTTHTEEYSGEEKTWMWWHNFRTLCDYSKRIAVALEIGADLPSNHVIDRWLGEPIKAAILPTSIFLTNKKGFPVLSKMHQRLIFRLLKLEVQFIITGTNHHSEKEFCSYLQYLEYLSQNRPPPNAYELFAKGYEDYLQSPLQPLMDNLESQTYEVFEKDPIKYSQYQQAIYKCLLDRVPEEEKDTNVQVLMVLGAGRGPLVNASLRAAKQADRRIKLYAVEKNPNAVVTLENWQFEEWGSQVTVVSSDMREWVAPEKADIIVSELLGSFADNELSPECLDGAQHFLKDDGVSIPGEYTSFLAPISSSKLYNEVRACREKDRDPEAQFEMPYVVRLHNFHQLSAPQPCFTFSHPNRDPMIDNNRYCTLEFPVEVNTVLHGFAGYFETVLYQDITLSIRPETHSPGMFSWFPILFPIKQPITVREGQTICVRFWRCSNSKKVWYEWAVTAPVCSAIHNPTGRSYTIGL
Sequence of PRMT5 (Q9BQA1 whole entry partner): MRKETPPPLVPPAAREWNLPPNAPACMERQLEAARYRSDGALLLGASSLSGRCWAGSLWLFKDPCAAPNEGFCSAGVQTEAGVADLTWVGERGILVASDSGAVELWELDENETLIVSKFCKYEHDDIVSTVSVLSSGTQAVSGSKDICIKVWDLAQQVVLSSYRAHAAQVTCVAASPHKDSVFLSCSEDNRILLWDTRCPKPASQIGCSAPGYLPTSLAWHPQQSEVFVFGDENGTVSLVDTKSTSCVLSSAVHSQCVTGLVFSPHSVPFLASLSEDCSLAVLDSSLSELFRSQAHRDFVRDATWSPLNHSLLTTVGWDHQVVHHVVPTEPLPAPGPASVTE

- PRMT5 protein levels (PRMT5): very well
Compound: Cc1ncsc1-c1ccc([C@H](C)NC(=O)[C@@H]2C[C@@H](O)CN2C(=O)[C@@H](NC(=O)COCCOCCOCCOCCOCC(=O)N2CC(Nc3cc(C(=O)NC[C@H](O)CN4CCc5ccccc5C4)ncn3)C2)C(C)(C)C)cc1 [YS43-22, N-((S)-3-(3,4-dihydroisoquinolin-2(1H)-yl)-2-hydroxypropyl)-6-((1-((S)-19-((2S,4R)-4-hydroxy-2-(((S)-1-(4-(4-methylthiazol-5-yl)phenyl)ethyl)carbamoyl)pyrrolidine-1-carbonyl)-20,20-dimethyl-17-oxo-3,6,9,12,15-pentaoxa-18-azahenicosanoyl)azetidin-3-yl)amino)pyrimidine-4-carboxamide]
- suppressing PRMT5 activity (PRMT5 substrates; MCF-7 cells (Examples 90-92)): especially effective
- inhibition of arginine symmetric dimethylation (PRMT5 substrates; MCF-7 cells, indicated concentrations (μM), 6 days): significantly inhibited; also recorded: significant inhibition
